Results reported in publication PMC10620772, “Design, synthesis, and biological evaluation of new pyrimidine-5-carbonitrile derivatives as novel anti-cancer, dual EGFR^WT/COX-2 inhibitors with docking studies” (RSC Advances, 2023).

Experiments:
Test in all cases: NCI60 antitumor screening
Type in all cases: cell-based, human
OVCAR-5 = test system: OVCAR-5
KM12 = test system: KM12
UACC-257 = test system: UACC-257
MDA-MB-435 = test system: MDA-MB-435
SK-OV-3 = test system: SK-OV-3
SK-MEL-5 = test system: SK-MEL-5
SR = test system: SR
MALME-3M = test system: MALME-3M
OVCAR-8 = test system: OVCAR-8
SF-539 = test system: SF-539
SF-295 = test system: SF-295
HS 578T = test system: HS 578T
MOLT-4 = test system: MOLT-4
SK-MEL-2 = details: Homo sapiens; 10 μM single dose; SK-MEL-2 (melanoma); read-out: growth inhibition percent (GI%)
A549/ATCC = details: Homo sapiens, A549; five-dose
[1] = Homo sapiens, SF-539, five-dose

N#Cc1c(-c2ccc(F)cc2)nc(SCc2ccccc2)nc1N1CCNCC1 [4e, 2-(Benzylthio)-4-(4-fluorophenyl)-6-(piperazin-1-yl) pyrimidine-5-carbonitrile]
GI50 (OVCAR-5; Homo sapiens, OVCAR-5, five-dose): 14.1 µM
CC50 (OVCAR-5; Homo sapiens, OVCAR-5, five-dose, read-out: LC50 (the source's name)): 54.2 µM
inhibition at 10 µM (OVCAR-5; Homo sapiens, 10 μM single dose, OVCAR-5 (ovarian cancer), read-out: growth inhibition percent (GI%)): > 100%
TGI (OVCAR-5; five-dose): 27.60 µM
GI50 (KM12; Homo sapiens, KM12, five-dose): 17.1 µM
CC50 (KM12; Homo sapiens, KM12, five-dose, read-out: LC50 (the source's name)): 63.1 µM
inhibition at 10 µM (KM12; Homo sapiens, 10 μM single dose, KM12 (colon cancer), read-out: growth inhibition percent (GI%)): > 100%
TGI (KM12; five-dose): 32.80 µM
GI50 (UACC-257; Homo sapiens, UACC-257, five-dose): 13.1 µM
CC50 (UACC-257; Homo sapiens, UACC-257, five-dose, read-out: LC50 (the source's name)): 52.6 µM
inhibition at 10 µM (UACC-257; Homo sapiens, 10 μM single dose, UACC-257 (melanoma), read-out: growth inhibition percent (GI%)): > 100%
TGI (UACC-257; five-dose): 26.20 µM
GI50 (MDA-MB-435; Homo sapiens, MDA-MB-435, five-dose): 16.9 µM
CC50 (MDA-MB-435; Homo sapiens, MDA-MB-435, five-dose, read-out: LC50 (the source's name)): 58.8 µM
inhibition at 10 µM (MDA-MB-435; Homo sapiens, 10 μM single dose, MDA-MB-435 (melanoma), read-out: growth inhibition percent (GI%)): > 100%
TGI (MDA-MB-435; five-dose): 31.50 µM
GI50 (SK-OV-3; Homo sapiens, SK-OV-3, five-dose): 16 µM
CC50 (SK-OV-3; Homo sapiens, SK-OV-3, five-dose, read-out: LC50 (the source's name)): 54.6 µM
inhibition at 10 µM (SK-OV-3; Homo sapiens, 10 μM single dose, SK-OV-3 (ovarian cancer), read-out: growth inhibition percent (GI%)): > 100%
TGI (SK-OV-3; five-dose): 29.50 µM
GI50 (SK-MEL-5; Homo sapiens, SK-MEL-5, five-dose): 15.7 µM
CC50 (SK-MEL-5; Homo sapiens, SK-MEL-5, five-dose, read-out: LC50 (the source's name)): 54.5 µM
inhibition at 10 µM (SK-MEL-5; Homo sapiens, 10 μM single dose, SK-MEL-5 (melanoma), read-out: growth inhibition percent (GI%)): > 100%
TGI (SK-MEL-5; five-dose): 29.20 µM
GI50 (SR; Homo sapiens, SR, five-dose): 1.92 µM
CC50 (SR; Homo sapiens, SR, five-dose, read-out: LC50 (the source's name)): 13.8 µM
inhibition at 10 µM (SR; Homo sapiens, 10 μM single dose, SR (leukaemia), read-out: growth inhibition percent (GI%)): > 100%
TGI (SR; five-dose): 4.61 µM
GI50 (MALME-3M; Homo sapiens, Malme-3M, five-dose): 14.1 µM
CC50 (MALME-3M; Homo sapiens, Malme-3M, five-dose, read-out: LC50 (the source's name)): 56.3 µM
inhibition at 10 µM (MALME-3M; Homo sapiens, 10 μM single dose, MALME-3M (melanoma), read-out: growth inhibition percent (GI%)): > 100%
TGI (MALME-3M; five-dose): 28.20 µM
GI50 (OVCAR-8; Homo sapiens, OVCAR-8, five-dose): 6.21 µM
CC50 (OVCAR-8; Homo sapiens, OVCAR-8, five-dose, read-out: LC50 (the source's name)): 59.1 µM
inhibition at 10 µM (OVCAR-8; Homo sapiens, 10 μM single dose, OVCAR-8 (ovarian cancer), read-out: growth inhibition percent (GI%)): > 100%
TGI (OVCAR-8; five-dose): 21.80 µM
GI50 (SF-539; [1]): 15.7 µM
LC50 (SF-539; [1]): 54.9 µM
inhibition at 10 µM (SF-539; Homo sapiens, 10 μM single dose, SF-539 (CNS cancer), read-out: growth inhibition percent (GI%)): > 100%
TGI (SF-539; five-dose): 29.40 µM
GI50 (SF-295; Homo sapiens, SF-295, five-dose): 15.8 µM
CC50 (SF-295; Homo sapiens, SF-295, five-dose, read-out: LC50 (the source's name)): 57.5 µM
inhibition at 10 µM (SF-295; Homo sapiens, 10 μM single dose, SF-295 (CNS cancer), read-out: growth inhibition percent (GI%)): > 100%
TGI (SF-295; five-dose): 30.10 µM
GI50 (HS 578T; Homo sapiens, Hs-578T, five-dose): 14.1 µM
CC50 (HS 578T; Homo sapiens, Hs-578T, five-dose, read-out: LC50 (the source's name)): 72.7 µM
inhibition at 10 µM (HS 578T; Homo sapiens, 10 μM single dose, HS 578T (breast cancer), read-out: growth inhibition percent (GI%)): > 100%
TGI (HS 578T; five-dose): 32.00 µM
GI50 (MOLT-4; Homo sapiens, MOLT-4, five-dose): 7.07 µM
CC50 (MOLT-4; Homo sapiens, MOLT-4, five-dose, read-out: LC50 (the source's name)): 52.7 µM
inhibition at 10 µM (MOLT-4; Homo sapiens, 10 μM single dose, MOLT-4 (leukaemia), read-out: growth inhibition percent (GI%)): > 100%
TGI (MOLT-4; five-dose): 21.20 µM
inhibition at 10 µM (SK-MEL-2): > 100%
GI50 (A549/ATCC): 8.1 µM
LC50 (concentration killing 50% of cells) (A549/ATCC): 50.2 µM
